According to patent US20190247376A1, “NICOTINIC ACETYLCHOLINE RECEPTOR AGONIST ATTENUATES ILC2-DEPENDENT AIRWAY HYPERREACTIVITY” (University of Southern California, priority 2016, published 2019):

How the values were obtained:
[1] = target: α4β2 subtype of nAChR (Homo sapiens, UniProt P17787+P43681); settings: cited from earlier work
[2] = tested on: Rag2 deficient mice; assay: IL-33-induced ILC2-mediated AHR and airway inflammation in Rag2-deficient mice; format: in vivo, mouse
Method: FIGS. 3A-3H: α7nAChR agonist treatment ameliorates ILC2s mediated AHR. (FIG. 3A) Rag2-deficient mice were intranasally challenged with recombinant mouse IL-33 or PBS and also received α7nAChR agonist (125 μg) or PBS on days 1-3 according to scheme 3A. Measurement of lung function and analyses of bronchoalveolar lavage fluid (BALF) and lung histology followed on day 4. (FIGS. 3B-3C) Lung resistance and dynamic compliance. (FIG. 3D) Total number of cells and eosinophils in BALF. (FIG. 3E) Hematoxylin and eosin-stained lung sections (×200). Scale bars represent 50 μm. (FIG. 3F) Quantification of lung histopathology shown as number of inflammatory cells per 250 μm^2 and thickness of airway epithelium (μm). (FIG. 3G) Total number and frequency of lung ILC2s. (FIG. 3H) Percentage of IL-5^+ and IL-13^+ lung ILC2s determined by flow cytometry. Data are representative of at least four independent experiments and are presented as means±SEM (n=8; Student's test *, p<0.05; **, p<0.01; ***, p<0.001).
As reported previously^6-9,11,12,34,35, the IL-5 and IL-13 cytokines produced by activated ILC2s are essential for eosinophilic inflammation and AHR development. Applicants investigated whether the attenuated ILC2 function by α7nAChR stimulation in vitro could result in inhibition of ILC2-mediated AHR and allergic inflammation. Rag2 deficient mice (devoid of T and B cells) were given intranasal (i.n.) rm-IL-33, with or without α7nAChR agonist for three consecutive days (FIG. 3A). As IL-33 administration specifically induces ILC2s, thereby causing AHR, with this model Applicants can readily explore the effect of an α7nAChR agonist in ILC2-mediated AHR. One day after the last challenge, lung function was evaluated by direct measurements of lung resistance (RL) and dynamic compliance (Cdyn), as described in the materials and methods section. […] These findings concur with the reduction of AHR and eosinophil counts in BALF (FIGS. 3B-3D). Thus, α7nAChR agonist represses IL-5 and IL-13 production, eosinophil recruitment, and ILC2-dependent AHR.
(§1) Mice were intranasally (i.n.) administered carrier-free recombinant mouse IL-33 (BioLegend, San Diego Calif., 0.5 µg per mouse in 50 µL) with or without […] of α7nAChR agonist (kindly provided by Lin Chen) on three consecutive days. Mice were intranasally (i.n.) administered carrier-free recombinant mouse IL-25 (BioLegend, San Diego Calif., 5 µg per mouse in 50 µL) with or without […] of α7nAChR agonist on three consecutive days. For Alternaria alternata experiments, mice were i.n. administered Alternaria alternata (Greer Labs, Lenoir, N.C., 100 μg per mouse in 50 μL) with or without 125 µg α7nAChR agonist for four consecutive days. One day after the last challenge, mice were anesthetized using i.p. injection of ketamine (10 mg mL^−1) and xylazine (1 mg mL^−1). Measurements of airway resistance and dynamic compliance were conducted with the Fine Pointe RC System (Buxco Research Systems, Wilmington, N.C.), in which mice were mechanically ventilated using a modified version as previously described^36,67. Mice were sequentially challenged with aerosolized PBS (baseline), followed by increasing doses of methacholine. Maximum lung resistance (RL) and minimum compliance (Cdyn) values were recorded during a three-minute period after each methacholine challenge.
After measurements of AHR, the trachea was canulated and the lungs lavaged three times with 1 mL ice cold PBS to collect BALF cells as previously described^68. […]

[3] = tested on: Rag2−/− GC−/− mice; assay: IL-33-induced AHR in Rag2−/− GC−/− mice after adoptive transfer of WT or α7nAChR-deficient ILC2s; format: in vivo, mouse; settings: IL-33, agonist 125 μg days 1-3
Method: FIGS. 4A-4E: α7nAChR expression is critical for GTS-21 action on ILC2s in vivo. BALB/cByJ and α7nAChR^−/− mice were intranasally challenged with rm-IL-33 or PBS, and also given α7nAChR agonist (125 μg) or PBS on days 1-3. Measurement of lung function and analysis of BAL followed on day 4. (FIG. 4A) Lung resistance. (FIG. 4B) Total number of eosinophils in BALF. (FIG. 4C) Rag^−/− GC^−/− mice were received ILC2s from either WT or α7nAChR^−/− mice. After the adoptive transfer, mice were intranasally challenged with rm-IL-33 or PBS; they also received α7nAChR agonist (125 μg) or PBS on days 1-3. Measurement of lung function and analysis of BAL followed on day 4, according to scheme 4C. (FIG. 4D) Lung resistance. (FIG. 4E) Total number of eosinophils in BALF. Data are representative of at least three independent experiments and are presented as means±SEM (n=4; Student's test ***, p<0.001, WT IL-33+α7nAChR agonist vs. α7nAChR^−/− IL-33+α7nAChR agonist).
Given that a variety of cells participate in allergic inflammation, Applicants wanted to investigate the effect of the agonist specifically on ILC2s. Rag2^−/− GC^−/− mice lack not only B and T cells, but NK cells and ILC2s as well. Using methods previously described by our laboratory^36, Applicants adoptively transferred WT or α7nAChR-deficient ILC2s into these Rag2^−/− GC^−/− mice, and then treated them with IL-33, with or without α7nAChR agonist. As expected, Applicants observed a decrease of AHR and of eosinophil recruitment in mice injected with WT ILC2s in response to α7nAChR treatment (FIGS. 4C-4E).
as §1, with “Mice were sequentially challenged with aerosolized PBS (baseline), followed by increasing doses of methacholine.” left out

[4] = target: α7 subtype of nAChR (Homo sapiens, UniProt P36544); settings: cited from earlier work
Chain of α7 subtype of nAChR (P36544 23-502): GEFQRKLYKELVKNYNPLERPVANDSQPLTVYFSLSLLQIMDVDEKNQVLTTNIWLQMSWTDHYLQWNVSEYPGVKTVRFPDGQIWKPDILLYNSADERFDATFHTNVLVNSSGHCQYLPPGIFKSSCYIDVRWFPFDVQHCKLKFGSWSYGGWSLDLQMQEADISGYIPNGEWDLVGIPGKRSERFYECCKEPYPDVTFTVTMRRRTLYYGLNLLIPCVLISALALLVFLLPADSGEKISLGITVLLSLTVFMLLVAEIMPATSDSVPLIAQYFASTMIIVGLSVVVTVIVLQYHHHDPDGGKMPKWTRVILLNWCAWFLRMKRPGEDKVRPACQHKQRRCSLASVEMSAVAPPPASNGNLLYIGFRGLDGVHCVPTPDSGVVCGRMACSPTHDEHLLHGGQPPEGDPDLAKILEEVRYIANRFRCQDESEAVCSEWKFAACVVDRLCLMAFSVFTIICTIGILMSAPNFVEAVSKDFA

[5] = i.n. rm-IL-33, agonist 125 μg days 1-3, day 4
[6] = i.n. rm-IL-33, agonist 125 μg days 1-3, measured day 4
[7] = i.n. rm-IL-33, agonist 125 μg days 1-3, vs untreated mice
[8] = Rag2−/− GC−/− mice injected with WT ILC2s
[9] = Rag2−/− GC−/− mice injected with α7nAChR-deficient ILC2s

Chain of α4β2 subtype of nAChR (P43681 29-627 limits assumed): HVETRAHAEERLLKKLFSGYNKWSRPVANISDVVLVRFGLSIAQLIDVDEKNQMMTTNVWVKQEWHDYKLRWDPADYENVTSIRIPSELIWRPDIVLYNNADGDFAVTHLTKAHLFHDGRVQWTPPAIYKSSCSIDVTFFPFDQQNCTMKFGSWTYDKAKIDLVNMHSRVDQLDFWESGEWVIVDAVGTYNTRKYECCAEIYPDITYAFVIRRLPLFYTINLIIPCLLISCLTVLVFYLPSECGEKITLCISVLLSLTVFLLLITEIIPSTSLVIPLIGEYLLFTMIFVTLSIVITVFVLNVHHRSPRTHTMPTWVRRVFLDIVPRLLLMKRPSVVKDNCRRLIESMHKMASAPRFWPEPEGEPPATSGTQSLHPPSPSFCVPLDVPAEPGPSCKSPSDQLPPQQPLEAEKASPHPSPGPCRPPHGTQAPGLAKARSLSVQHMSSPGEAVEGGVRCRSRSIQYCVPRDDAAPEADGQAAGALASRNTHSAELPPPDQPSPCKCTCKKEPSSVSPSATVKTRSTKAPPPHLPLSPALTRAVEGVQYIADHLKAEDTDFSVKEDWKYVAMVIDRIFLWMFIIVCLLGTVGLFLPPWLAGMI
Chain of α4β2 subtype of nAChR (P17787 26-502): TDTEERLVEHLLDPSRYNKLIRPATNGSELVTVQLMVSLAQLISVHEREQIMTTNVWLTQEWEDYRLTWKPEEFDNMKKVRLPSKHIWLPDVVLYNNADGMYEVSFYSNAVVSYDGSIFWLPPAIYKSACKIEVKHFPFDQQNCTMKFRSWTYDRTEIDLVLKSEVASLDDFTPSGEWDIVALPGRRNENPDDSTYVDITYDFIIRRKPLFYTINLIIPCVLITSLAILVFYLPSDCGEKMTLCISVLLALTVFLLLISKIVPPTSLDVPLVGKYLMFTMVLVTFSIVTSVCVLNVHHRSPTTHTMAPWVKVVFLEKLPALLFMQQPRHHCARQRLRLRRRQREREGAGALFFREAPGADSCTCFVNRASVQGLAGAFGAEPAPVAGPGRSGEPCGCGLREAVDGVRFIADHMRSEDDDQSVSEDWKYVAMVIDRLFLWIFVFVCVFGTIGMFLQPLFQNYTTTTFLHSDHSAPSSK

COc1ccc(/C=C2\CCCN=C2c2cccnc2)c(OC)c1 [GTS-21, 3-[(3E)-3-[(2,4-dimethoxyphenyl)methylidene]-5,6-dihydro-4H-pyridin-2-yl]pyridine]
binding to the α4β2 subtype [1]: binds | absolute number of lung ILC2s [2, 5]: significantly suppressed | airway wall thickness (lung histology) [2, 5]: prevented | eosinophilic infiltration in BALF [2, 5]: decreased | frequency of lung ILC2s [2, 5]: significantly suppressed | infiltrated cells (lung histology) [2, 5]: prevented | total cell counts (TCC) in BALF [2, 5]: decreased | dynamic compliance (Cdyn) [2, 6]: significantly reduced | lung resistance (RL) [2, 6]: significantly reduced | IL-5 producing lung ILC2s (intracellular cytokine assay) [2, 7]: significantly decreased | IL-13 producing lung ILC2s (intracellular cytokine assay) [2, 7]: significantly decreased | AHR [3, 8]: decrease | eosinophil recruitment [3, 8]: decrease | AHR [3, 9]: affected neither AHR nor eosinophilia | eosinophilia [3, 9]: affected neither AHR nor eosinophilia | binding to the α7 subtype [4]: binds
